Drawing on the METLIN SMRT retention time set (Domingo-Almenara et al. 2019), this text covers RP-LC retention time for 79 compounds.

This data set in a line: gradient 5% acetonitrile 3 min, to 50% in 2 min, to 85% in 15 min, held 3 min, 100 µL/min. The conditions noted are these: column: Zorbax Extend-C18 2.1 x 50 mm; eluents: water / acetonitrile, 0.1% formic acid. The method, boiled down:
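Standards, all pure, were combined into mixtures of ~100 molecules and run at 100 μL/min on a Zorbax Extend-C18 column (2.1 × 50 mm, 1.8 μm) with water and acetonitrile, each containing 0.1% formic acid. A coupled quadrupole time-of-flight mass spectrometer operated in positive and negative ionization mode. Retention time values come from computationally picked adduct peaks, each inspected manually.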
The compound `CCCN1C(=O)C(NC(=O)c2cccc(OC)c2)(C(F)(F)F)C(C(=O)OC)=C1C` (centres undefined) displayed an RP-LC retention time of 946 s.
For `CSc1ccc(CNC(=O)c2ccc3ncnc(N4CCCC4)c3c2)cc1`, the RP-LC retention time amounted to 669 s.
On to `CCCn1nc(CNC(=O)COc2ccccc2)c2ccccc21`, for which the RP-LC retention time was 900 s.
Turning to `O=C(Nc1ccc(-c2cn3ccccc3n2)cc1)c1ccc([N+](=O)[O-])cc1`, the RP-LC retention time was found to be 586 s.
`Cc1csc(-n2nc(C)c(CC(=O)Nc3ccc(Cl)cc3)c2C)n1`: the RP-LC retention time was determined as 997 s.
For the compound `Cn1nc(-c2nc(C3CC3)no2)c2c1CCN(C(=O)c1ccc(OC(F)(F)F)cc1)C2`, the RP-LC retention time amounted to 937 s.
Take `O=C(NCc1ccccc1)C1CCCCN1S(=O)(=O)c1ccc(F)cc1` (centres undefined): the RP-LC retention time amounted to 940 s.
Regarding `CCCn1cc(C(=O)Nc2ccc(F)cc2C)c2cccnc21`, the RP-LC retention time stood at 882 s.
In turn, `CC(C)Cn1cc(CCNS(=O)(=O)c2ccc(Br)s2)c2cccnc21` gave an RP-LC retention time of 995 s.
As for `c1ccc(N2CCN(c3nnc(-n4cccc4CN4CCN(c5ccccn5)CC4)s3)CC2)cc1`, the figure is 675 s; as for `CNC(=O)c1sc2nc(-c3ccc(C)cc3)c(NCCOC)n2c1C`, 712 s.
For the compound `O=S(=O)(CCOc1ccc(F)cc1)Nc1ccc(N2CCOCC2)cc1`, the RP-LC retention time was found to be 767 s.
The compound `O=C(NC1CCCC1)C1CCCN(c2ccc3cc(S(=O)(=O)N4CCCC4)ccc3n2)C1` (centres undefined) gave an RP-LC retention time of 716 s.
In turn, `O=C(Nc1ccc(OC(F)(F)F)cc1)C(=O)Nc1ccccc1[N+](=O)[O-]` came in with an RP-LC retention time of 1090 s.
Take `Cc1ccc(S(=O)(=O)N2CCC(C)CC2)cc1-c1nnc(-c2ccc(F)cc2)o1`: the RP-LC retention time was found to be 1220 s.
With `CCOc1cccc(CNC(=O)c2c(C)sc3ccn(CC)c(=O)c23)c1`, the RP-LC retention time amounted to 856 s.
The figure for `CC1C(=O)NCCN1C(=O)c1ccc(Oc2ccccc2)cc1` (centres undefined) is 670 s.
As to `CCOc1ccc(-n2nnnc2CNC(=O)Nc2cccs2)cc1`, the RP-LC retention time came to 722 s.
The compound `O=C(Cn1c(=O)cc(C(=O)N2CCc3ccccc3C2)c2ccccc21)Nc1ccc2c(c1)OCCO2` yielded an RP-LC retention time of 831 s.
Compound `CCOc1ccc(S(=O)(=O)[C@H]2CS(=O)(=O)C[C@@H]2N2CCC(C(=O)OC)CC2)cc1` gave an RP-LC retention time of 858 s.
`COc1ccc(-c2ncc3c(n2)CCN(S(=O)(=O)c2ccc4c(c2)CCC4)C3)cc1` gave an RP-LC retention time of 1160 s.
`c1ccc(OCc2nc(-c3ccc4c(c3)nnn4CCN3CCCCC3)no2)cc1` had an RP-LC retention time of 698 s.
With `COC[C@@H]1CN(S(=O)(=O)Cc2ccccc2)C[C@H]1c1nc(C)no1`, the RP-LC retention time was determined as 836 s.
`O=C(c1cn(-c2cc(N3CCSCC3)ncn2)cn1)N1CCN(c2ccccc2)CC1`: the RP-LC retention time was found to be 877 s.
The figure for `Cn1ncc(N2CCC(C(=O)Nc3ccccc3)C2)cc1=O` (centres undefined) is 648 s; for `CCc1nc2c(NC(=O)c3ccc(Br)cc3)cccn2n1` it is 914 s; for `CCn1cc(CC(=O)NCc2ccc(OC)cc2)c2cccnc21` it is 716 s.
As for `Cc1cc(C)n(-c2ccnc(N3CCC(C(=O)NCC(C)C)CC3)n2)n1`, the figure is 768 s; as for `CCN1CCN(CC2=C(C(=O)OC)C(c3ccccc3C)NC(=O)N2)CC1` (centres undefined), 615 s.
The figure for `COc1cccc(CNC(=O)Cn2ccc3ccc(N4CCOCC4)nc32)c1` is 858 s.
`CC(C)NC(=O)CN1C(=O)CC(c2ccc(Br)s2)=Nc2ccccc21` gave an RP-LC retention time of 929 s.
For the compound `Cc1csc(-c2cc(S(=O)(=O)NC3CCCCC3)cn2CC(=O)N2CCCCC2)n1`, the RP-LC retention time amounted to 1010 s.
As for `CC1CCN(c2cc(N3CCN(C)CC3)ccc2NC(=O)c2cc(C#N)c[nH]2)CC1`, the RP-LC retention time was found to be 595 s.
For `CCCN1C(=O)COc2ccc(-c3noc(-c4ccccc4F)n3)cc21`, the RP-LC retention time was determined as 1160 s.
Compound `CN(C)C(CNC(=O)NCc1cccs1)c1cn(C)c2ccccc12` (centres undefined) displayed an RP-LC retention time of 586 s.
`CC(O)(CNC(=O)NCc1cccs1)C1CC1` (centres undefined) gave an RP-LC retention time of 632 s.
The figure for `Cc1[nH]c(C(=O)N2CCC(CC(=O)NCCCN3CCCCC3)CC2)c(C)c1C` is 606 s; for `O=C(NCc1ccc2c(c1)OCO2)c1ccc2ncnc(N3CCOCC3)c2c1` it is 605 s.
The figure for `CCCCN(C)C(=O)c1cc2sc(C)c(CN3CCCC3)c2[nH]1` is 671 s; for `O=C(Cn1nc(N2CCCC2)c2ccccc2c1=O)NCc1ccccc1` it is 837 s; for `O=C(CC1CCN(C(=O)c2ccc3oc(C4CC4)nc3c2)CC1)N1CCN(c2ccccn2)CC1` it is 602 s.
`O=C(CSc1nc(-c2cccc([N+](=O)[O-])c2)cs1)NCc1ccccc1` showed an RP-LC retention time of 890 s.
Regarding `COc1ccc2[nH]cc(CCNC(=O)C(C)C3CCN(S(=O)(=O)c4c(C)noc4C)CC3)c2c1` (centres undefined), the RP-LC retention time came out at 831 s.
`COc1cc(C(=O)N2CCN(c3cc(=O)n(C)c(=O)n3C)CC2)cc(OC)c1OC` returned an RP-LC retention time of 630 s.
For the compound `CCc1cccc(NC(=O)Cn2nc3n(c2=O)CCCCC3)c1`, the RP-LC retention time came to 722 s.
For `CCc1ccccc1NC(=O)N1CCC(n2cnnc2C2CC2)C1` (centres undefined), the RP-LC retention time came out at 628 s.
The figure for `CC(=O)N1CCc2c(c(CNC(=O)c3cncn3C)nn2C)C1` is 558 s; for `O=C(CN1C[C@H]2C[C@H](C1)[C@H]1CCCC(=O)N1C2)Nc1ccc2c(c1)OCCO2` it is 587 s; for `COC(=O)Cn1c(=O)oc2cc(S(=O)(=O)N3CCN(c4ccccn4)CC3)ccc21` it is 624 s.
`Cc1ccc(Nc2nc3ccncc3n(Cc3ccccc3)c2=O)cc1Cl` showed an RP-LC retention time of 898 s.
Turning to `CCOC(=O)CC(=O)Nc1nnc(SCc2nnc(-c3ccccc3C)o2)s1`, the RP-LC retention time is 817 s.
For `Cc1ccccc1C(=O)Nc1ccc(C(=O)N2CCCC(O)c3cc(Cl)ccc32)c(C)c1` (centres undefined), the RP-LC retention time was found to be 899 s.
The compound `O=C(Cc1nnc2c(-c3nc(C4CC4)no3)cccn12)N1CCCCC1` registered an RP-LC retention time of 616 s.
Compound `Cn1c(=O)sc2cc(S(=O)(=O)N3CCC(C(=O)Nc4cccc(Cl)c4)CC3)ccc21` registered an RP-LC retention time of 953 s.
As for `O=C(CN1CCN(C(=O)Nc2ccc(Cl)cc2)CC1=O)N1CCN(c2ccccn2)CC1`, the RP-LC retention time worked out at 592 s.
The figure for `CCCn1cc(CCNS(=O)(=O)c2ccc(C(C)C)cc2)c2cccnc21` is 1030 s; for `O=C(COc1ccccc1)NCc1c(-c2ccccc2)nc2n1CCS2` it is 678 s; for `Cc1ccc(NS(=O)(=O)c2cc3n(c2)CCN(C)C3=O)cc1F` it is 716 s.
Turning to `Cc1cc(C)nc(NS(=O)(=O)c2ccc(Nc3nc(-c4ccc(C)c(C)c4)cs3)cc2)n1`, the RP-LC retention time was determined as 1020 s.
The figure for `Cc1nc(Nc2ccccn2)sc1C(=O)N1CCc2ccccc2C1` is 829 s; for `CCOC(=O)c1c(S(=O)(=O)N2CCC(C(=O)NCc3ccc(OC)cc3)CC2)c(C)n(C)c1C` it is 793 s.
`Cc1c(C#N)c2ccccc2n1CC(=O)NC(C)c1ccc2c(c1)OCCCO2` (centres undefined): the RP-LC retention time worked out at 892 s.
On to `Cc1ccc(NC(=O)c2sc3nc[nH]c(=O)c3c2C)c(C)c1`, for which the RP-LC retention time was determined as 725 s.
For the compound `Cc1ccc(NC(=O)c2cc3c(=O)n(CC(C)C)ccc3n2C)cc1Cl`, the RP-LC retention time amounted to 1020 s.
`COc1ccc(-c2nc(-c3cccc(-c4ccnn4C)c3)no2)c(C)c1` had an RP-LC retention time of 1210 s.
Compound `Cc1ccccc1CN1C[C@@H]2C(=O)N(C)C(=O)[C@@H]2C1` had an RP-LC retention time of 585 s.
Compound `O=C(NCc1ccc(Br)cc1)C1CCN(c2cncnc2N2CCCC2)CC1` returned an RP-LC retention time of 704 s.
On to `CCOc1ccc(S(=O)(=O)N2CCC(c3nc(C(=O)N4CCCC4)c(C)o3)CC2)cc1`, for which the RP-LC retention time was 941 s.
The figure for `Cc1ccc2cc(CN3C[C@@H](CO)[C@H](c4ccccn4)C3)c(=O)[nH]c2c1` is 585 s.
As to `CSc1ccc(-c2nc3cnccn3c2Nc2ccc(C(=O)N3CCOCC3)cc2)cc1`, the RP-LC retention time came to 708 s.
`O=C(c1ccc(-c2cncnc2)nc1)N1CCN(c2ccccc2F)CC1` showed an RP-LC retention time of 760 s.
As to `Cc1nn2c(nnc3c(=O)n(CCc4c[nH]c5ccccc45)ccc32)c1-c1ccc(F)cc1`, the RP-LC retention time came out at 954 s.
For the compound `COc1cccc(CNC(=O)Nc2c(-c3ccccc3)nc3ccccn23)c1`, the RP-LC retention time turned out to be 653 s.
In turn, `CCOC(=O)Cc1sc(Nc2nc(C)cc(C)n2)nc1-c1ccccc1` gave an RP-LC retention time of 989 s.
`COc1ccc2nc(-c3ccc(F)c(NC(=O)Nc4ccccc4C)c3)cn2n1` came in with an RP-LC retention time of 789 s.
Regarding `COCc1nc(C2CCN(C(=O)C3CCCC3)C2)no1` (centres undefined), the RP-LC retention time worked out at 688 s.
The figure for `Cc1ccc(CNC(=O)C2(C)CCCN(C(=O)Nc3cccc(Br)c3)C2)cc1` (centres undefined) is 1070 s; for `O=C(Nc1ccccc1)N(Cc1nnc2n1CCCCC2)c1ccc2c(c1)OCO2` it is 703 s.
Regarding `CCOC(=O)c1nc(Nc2cc(C)c(Cl)cc2OC)c2ccccc2n1`, the RP-LC retention time was found to be 1130 s.
